From patent publication US11358940B2, “K-Ras modulators” (THE REGENTS OF THE UNIVERSITY OF CALIFORNIA, priority 2017, dated 2022)

Experiments:
[1] = target: T1, GppNHp loaded KRAS4b(1-169) H95C/C118S mutant (Homo sapiens, UniProt P01116, C118S/H95C); assay: MALDI-TOF percentage labeling of C95, GppNHp-loaded protein; assay type: binding; conditions: for level of covalent labeling to C95 (percent of labeling), GppNHp, 3 h: 3 h incubation; for level of covalent labeling to C95 (percent of labeling), GppNHp, 6 h: 6 h incubation; for level of covalent labeling to C95 (percent of labeling), GppNHp, 24 h: 24 h incubation
T1 construct: loaded KRAS4b(1-169) H95C/C118S mutant
Description: (§1) Table 1 is a table summarizing levels of covalent labeling to C95 as analyzed by MALDI-TOF MS for a series of synthesized compounds. […] Both species, GDP or nonhydrolyzable analogue of GTP—GppNHp-loaded KRAS4b H95C/C118S, were then reacted with a panel of epoxides and analyzed by MALDI-TOF MS to assess level of covalent modification to C95 after 3 h, 6 h, or 24 h of incubation with the protein. All R isomers show enhanced activity compared to S isomers.
150 to 300 μM solution of GDP loaded protein in KRAS buffer was prepared (20 mM HEPES, 150 mM NaCl, 1 mM MgCl2, 0.05 mM TCEP, pH 7.3). To this was added vigorously 1500×molar excess of 1 M ammonium sulfate in KRAS buffer, and the combination mixed gently by inverting tube. Next was prepared 250 mM solution of GppNHp (150 molar excess of GppNHp to protein; keep it on ice). To the protein was pipetted 10% of prepared GppNHp solution, then suspension of alkaline phosphatase from calf intestine on agarose was added (Sigma-Aldrich, P0726) to have 2 units of enzyme per each mg of protein. The reaction mixture was incubated at room temperature, rotating end-over for 1 h 30 min. The alkaline phosphatase was removed on agarose beads by filtering solution to a new vial using Millex-GP syringe filter. Remaining solution of GppNHp was added and incubated for additional 45 min. At the end of the exchange the protein was filtered again, placed on ice, and purified on NGC medium-pressure chromatography system (Bio-Rad). Five in-lane connected desalting columns (5×GE Healthcare HiTrap Desalting columns 5 ml, 17-1408-01) were used with isocratic elution of KRAS buffer at 4 ml/min. The protein elution was monitored at 280 nm. The concentration of final protein was evaluated by NanoDrop 2000 spectrophotometer (Thermo Fisher) using molar attenuation coefficient ε=19685 l·mol^−1·cm^−1. The quality of the protein was confirmed by MALDI and the exchange rate was assessed by HPLC based assay.
(§2) Example 18: Percentage Labeling Determination for Compounds Targeting KRAS4b Residue 95 by Matrix Assisted Laser Desorption Ionization-Time of Flight Mass Spectrometry (MALDI-TOF)
(§3) The assay uses four tool proteins: • Guanosine diphosphate (GDP) loaded KRAS4b(1-169) H95C/C118S mutant • 5′-Guanylyl imidodiphosphate (GppNHp) loaded KRAS4b(1-169) H95C/C118S mutant • GDP loaded KRAS4b(1-169) C118S mutant • GppNHp loaded KRAS4b(1-169) C118S mutant
(§4) 20 μM Solution of protein in 20 mM HEPES, 150 mM NaCl, 1 mM MgCl2, pH 7.3 buffer was prepared freshly before assay. 20 μl Aliquots of protein were dispensed on 384 well polypropylene plate, then tested compounds (0.8 μl, 10 mM in DMSO) were added to appropriate wells. For each reaction/assay three blank and three control samples were prepared by mixing 20 μl of protein solution with 0.8 μl DMSO or 10 mM standards (compounds 994566 and FB9). The wells content was carefully mixed by aspiration, then plate was sealed by adhesive cover, centrifuged at 2000 g for 1 minute and kept in dark at room temperature for 3, 6 (or 8) and 24 h.
(§5) Before each assay MALDI target (Bruker MPT 384 ground steel BC) was pre-treated by pipetting on each spot 1 μl of saturated sinapinic acid in acetonitrile (ACN).
(§6) After 24 h reaction, 2 μl of reaction mixtures were pipetted out into 20 μl MALDI matrix solution (saturated solution of sinapinic acid in 1:1 ACN:water solution containing 0.75% trifluoroacetic acid (TFA)) deposited on 384 well polypropylene plate. Resulting solution was mixed by aspiration, centrifuged at 2000 g for 1 minute, then 2 μl aliquots were dispensed on pre-treated MALDI target using Beckman Coulter Biomek FX^P 96/Span-8 Laboratory Automation Workstation. Finally, the MALDI target was dried under mild vacuum to produce spots with fine crystalline structure.
MALDI-TOF measurements were performed on Bruker Daltonics ultraflex III TOF-TOF mass spectrometer using linear mode and mass range from 5 to 45 kDa. […]

[2] = target: T2, GDP loaded KRAS4b(1-169) H95C/C118S mutant (Homo sapiens, UniProt P01116, C118S/H95C); assay: MALDI-TOF percentage labeling of C95, GDP-loaded protein; assay type: binding; conditions: for level of covalent labeling to C95 (percent of labeling), GDP, 3 h: 3 h incubation; for level of covalent labeling to C95 (percent of labeling), GDP, 6 h: 6 h incubation; for level of covalent labeling to C95 (percent of labeling), GDP, 24 h: 24 h incubation
T2 construct: loaded KRAS4b(1-169) H95C/C118S mutant
Description: as §1, §2, §3, §4, §5, §6
MALDI-TOF measurements were performed on Bruker Daltonics ultraflex III TOF-TOF mass spectrometer using linear mode and mass range from 5 to 45 kDa. Detector gain was set to ×9 (1734 V), sample rate to 1 GS/s, smart beam parameter set: 3_medium was used, and the laser frequency was 66.7 Hz. Spectra were automatically collected using custom AutoXecute method. Laser power was auto-adjusted using fuzzy control. The peak selection range was set to be between 19000 and 20200 Da. Peak evaluation uses half width parameter set to be smaller than 30 Da. Fuzzy control used Proteins/Oligonucleotides protocol with minimum half width ⅙ times above threshold. Up to 1500 shots were collected in 500 shot steps. Dynamic termination was implemented to finish data collection when peak intensity was reaching value of 1200 [a.u.].
Spectra were smoothed by SavitzkyGolay algorithm using 5 m/z width and three cycles. Centroid peak detection algorithm was used with signal to noise threshold set to 4, relative intensity threshold 2%, minimum intensity threshold 20 [a.u.], peak width 10 m/z and TopHat baseline subtraction. Peak intensity and area under the peak were evaluated and recorded for all peaks between 19248 Da and 20500 Da for H95/C118 mutant and 19285 Da and 20500 Da for C118 mutant respectively.
Percent of labeling was calculated using followed equation:
[formula] Similar results were obtained when peak area instead of peak height was used for calculations, however peak height method produced more reliable data in case of poor quality spectra.

SMILES | level of covalent labeling to C95 (percent of labeling), GppNHp, 3 h [1] [%] | level of covalent labeling to C95 (percent of labeling), GppNHp, 6 h [1] [%] | level of covalent labeling to C95 (percent of labeling), GppNHp, 24 h [1] [%] | level of covalent labeling to C95 (percent of labeling), GDP, 3 h [2] [%] | level of covalent labeling to C95 (percent of labeling), GDP, 6 h [2] [%] | level of covalent labeling to C95 (percent of labeling), GDP, 24 h [2] [%]
Cc1ccc(S(=O)(=O)c2cn(CC3OC3(C)C)nn2)cc1 (stereo not drawn) | 0 | 0 | 0 | 0 | 0 | 0
Cn1cc(C(=O)NCc2cn(C[C@@H]3CO3)nn2)c2cc(Br)ccc21 | 3 | 4 | 22 | 19 | 42 | 91
CC(C)C[C@H](NC(=O)c1cn(C)c2ccc(Br)cc12)C(=O)[C@@]1(C)CO1 | 0 | 0 | 0 | 0 | 0 | 0
CC(C)Cc1ccc(C(C)C(=O)NCc2cn(C[C@@H]3CO3)nn2)cc1 (stereo partly drawn) | 0 | 2 | 17 | 36 | 73 | 98
Cn1nc(C(=O)NCc2cn(C[C@H]3CO3)nn2)c2ccccc21 | 0 | 0 | 0 | 0 | 0 | 0
Cn1nc(C(=O)NCc2cn(C[C@@H]3CO3)nn2)c2ccccc21 [drawing 514] | 0 | 3 | 13 | 3 | 9 | 38
CC(C)C[C@H](NC(=O)c1cn(C)c2ccccc12)C(=O)[C@@]1(C)CO1 | 0 | 0 | 0 | 0 | 0 | 0
CC(=O)Oc1ccccc1C(=O)NCc1cn(C[C@@H]2CO2)nn1 | 2 | 3 | 14 | 5 | 12 | 45
O=C(NCc1cn(C[C@H]2CO2)nn1)c1c[nH]c2ccccc12 | 0 | 2 | 11 | 0 | 5 | 31
Cn1nc(C(=O)NCc2cn(C[C@@H]3CO3)nn2)c2cc(Br)ccc21 | 0 | 4 | 19 | 23 | 52 | 96
